According to publication doi:10.1101/2024.08.19.608619, “Discovery of potent SARS-CoV-2 nsp3 macrodomain inhibitors uncovers lack of translation to cellular antiviral response” (bioRxiv, 2024):
Read-outs that look alike come from different tables or passages of the source.

How the values were obtained:
SARS-CoV-2 nsp3-mac1 [1] = biological target: T1, SARS-CoV-2 nsp3-mac1 (Severe acute respiratory syndrome coronavirus 2, UniProt P0DTD1); experiment: biochemical; format: biochemical; conditions: SARS-CoV-2 nsp3 macrodomain TR-FRET single point
SARS-CoV-2 nsp3-mac1 [2] = biological target: T1, SARS-CoV-2 nsp3-mac1; experiment: biochemical; set-up: SARS-CoV-2 nsp3 macrodomain TR-FRET single point, per cent inhibition, n=2
[3] = read-out: perc_inhibition_mean, batch_name=ASAP-0000338-001
[4] = read-out: perc_inhibition_mean, batch_name=ASAP-0000341-001
[5] = read-out: perc_inhibition_mean, batch_name=ASAP-0000290-001
[6] = read-out: perc_inhibition_mean, batch_name=ASAP-0000423-001
[7] = read-out: perc_inhibition_mean, batch_name=ASAP-0000286-001
[8] = read-out: perc_inhibition_mean, batch_name=ASAP-0000413-001
[9] = read-out: perc_inhibition_mean, batch_name=ASAP-0000346-001
[10] = read-out: perc_inhibition_mean, batch_name=ASAP-0000429-001

CNC[C@@H]1CCCN1C(=O)c1cnn2ccc(C3CCN(C(=O)c4ccccc4)CC3)cc12 [ASAP-0000338]
perc_inhibition_mean (SARS-CoV-2 nsp3-mac1 [1]; concentration 49.75 uM, n=2): -1.474%
perc_inhibition_mean (SARS-CoV-2 nsp3-mac1 [1]; concentration 99.5 uM, n=2): -2.203%
inhibition at 49.75 µM (SARS-CoV-2 nsp3-mac1 [2]; [3]): -1.47%
inhibition at 99.5 µM (SARS-CoV-2 nsp3-mac1 [2]; [3]): -2.2%

Cc1[nH]c2ncnc(NC(=O)[C@@H]3CCO[C@@H]3C)c2c1C [ASAP-0000090]
perc_inhibition_mean (SARS-CoV-2 nsp3-mac1 [1]; concentration 50.0 uM): 35.092%
inhibition at 50 µM (SARS-CoV-2 nsp3-mac1 [2]; read-out: perc_inhibition_mean, batch_name=ASAP-0000090-001): 35.1%

Cn1nc(NC(=O)c2cc(-c3ccco3)[nH]n2)c2nccnc21 [ASAP-0000099]
perc_inhibition_mean (SARS-CoV-2 nsp3-mac1 [1]; concentration 50.0 uM): -5.398%
inhibition at 50 µM (SARS-CoV-2 nsp3-mac1 [2]; read-out: perc_inhibition_mean, batch_name=ASAP-0000099-001): -5.4%

O=C(NCc1cn[nH]c1)c1cnn2ccc(C3CCN(C(=O)c4ccccc4)CC3)cc12 [ASAP-0000341]
perc_inhibition_mean (SARS-CoV-2 nsp3-mac1 [1]; concentration 49.75 uM, n=2): -2.366%
perc_inhibition_mean (SARS-CoV-2 nsp3-mac1 [1]; concentration 99.5 uM, n=2): -4.505%
inhibition at 49.75 µM (SARS-CoV-2 nsp3-mac1 [2]; [4]): -2.37%
inhibition at 99.5 µM (SARS-CoV-2 nsp3-mac1 [2]; [4]): -4.5%

C#Cc1cccc(NC(=O)CN(C)c2ncnc3[nH]ccc23)c1 [ASAP-0000024]
perc_inhibition_mean (SARS-CoV-2 nsp3-mac1 [1]; concentration 50.0 uM): 4.398%
inhibition at 50 µM (SARS-CoV-2 nsp3-mac1 [2]; read-out: perc_inhibition_mean, batch_name=ASAP-0000024-001): 4.4%

COCc1cc(CC(=O)Nc2ncnc3[nH]cnc23)no1 [ASAP-0000129]
perc_inhibition_mean (SARS-CoV-2 nsp3-mac1 [1]; concentration 50.0 uM): 2.968%
inhibition at 50 µM (SARS-CoV-2 nsp3-mac1 [2]; read-out: perc_inhibition_mean, batch_name=ASAP-0000129-001): 2.97%

O=C1C[C@H](CNC(=O)c2ccc(NC(=O)Nc3ccccc3)cc2)CCN1 [ASAP-0000290]
perc_inhibition_mean (SARS-CoV-2 nsp3-mac1 [1]; concentration 49.75 uM, n=2): 1.223%
perc_inhibition_mean (SARS-CoV-2 nsp3-mac1 [1]; concentration 99.5 uM, n=2): 4.013%
inhibition at 49.75 µM (SARS-CoV-2 nsp3-mac1 [2]; [5]): 1.22%
inhibition at 99.5 µM (SARS-CoV-2 nsp3-mac1 [2]; [5]): 4.01%

Cc1c[nH]nc1C(=O)N1CCC(c2ccn3ncc(C(=O)N4CCCCC4)c3c2)CC1 [ASAP-0000423]
perc_inhibition_mean (SARS-CoV-2 nsp3-mac1 [1]; concentration 49.75 uM): 8.474%
perc_inhibition_mean (SARS-CoV-2 nsp3-mac1 [1]; concentration 99.5 uM): 27.38%
inhibition at 49.75 µM (SARS-CoV-2 nsp3-mac1 [2]; [6]): 8.47%
inhibition at 99.5 µM (SARS-CoV-2 nsp3-mac1 [2]; [6]): 27.4%

CCn1cnc(Nc2ncnc3c2ncn3Cc2cc(OC)no2)c1 [ASAP-0000286]
perc_inhibition_mean (SARS-CoV-2 nsp3-mac1 [1]; concentration 49.75 uM, n=2): -16.725%
perc_inhibition_mean (SARS-CoV-2 nsp3-mac1 [1]; concentration 99.5 uM, n=2): -12.789%
inhibition at 49.75 µM (SARS-CoV-2 nsp3-mac1 [2]; [7]): -16.7%
inhibition at 99.5 µM (SARS-CoV-2 nsp3-mac1 [2]; [7]): -12.8%

O=C1CC[C@@H](CNC(=O)c2cnn3ccc(C4CCN(C(=O)c5ccccc5)CC4)cc23)N1 [ASAP-0000413]
perc_inhibition_mean (SARS-CoV-2 nsp3-mac1 [1]; concentration 49.75 uM): -2.317%
perc_inhibition_mean (SARS-CoV-2 nsp3-mac1 [1]; concentration 99.5 uM): -1.468%
inhibition at 49.75 µM (SARS-CoV-2 nsp3-mac1 [2]; [8]): -2.32%
inhibition at 99.5 µM (SARS-CoV-2 nsp3-mac1 [2]; [8]): -1.47%

O=C(CCCc1cccnc1)Nc1cnc2[nH]ncc2c1 [ASAP-0000114]
perc_inhibition_mean (SARS-CoV-2 nsp3-mac1 [1]; concentration 50.0 uM): -3.651%
inhibition at 50 µM (SARS-CoV-2 nsp3-mac1 [2]; read-out: perc_inhibition_mean, batch_name=ASAP-0000114-001): -3.65%

Cc1ccc(S(=O)(=O)Nc2ccccc2F)cc1C(=O)Nc1cnc2[nH]ncc2c1 [ASAP-0000018]
perc_inhibition_mean (SARS-CoV-2 nsp3-mac1 [1]; concentration 50.0 uM): 0.764%
inhibition at 50 µM (SARS-CoV-2 nsp3-mac1 [2]; read-out: perc_inhibition_mean, batch_name=ASAP-0000018-001): 0.764%

C[C@H](NC(=O)c1cnn2ccc(C3CCN(C(=O)c4ccccc4)CC3)cc12)c1cccnc1 [ASAP-0000346]
perc_inhibition_mean (SARS-CoV-2 nsp3-mac1 [1]; concentration 49.75 uM, n=2): -1.839%
perc_inhibition_mean (SARS-CoV-2 nsp3-mac1 [1]; concentration 99.5 uM, n=2): -6.209%
inhibition at 49.75 µM (SARS-CoV-2 nsp3-mac1 [2]; [9]): -1.84%
inhibition at 99.5 µM (SARS-CoV-2 nsp3-mac1 [2]; [9]): -6.21%

Cc1[nH]c2ncnc(NC(=O)CCc3ccccc3)c2c1C [ASAP-0000081]
perc_inhibition_mean (SARS-CoV-2 nsp3-mac1 [1]; concentration 50.0 uM): 5.021%
inhibition at 50 µM (SARS-CoV-2 nsp3-mac1 [2]; read-out: perc_inhibition_mean, batch_name=ASAP-0000081-001): 5.02%

O=C(Nc1cnn(C2CCNCC2)c1)c1ncnc2[nH]ccc12 [ASAP-0000138]
perc_inhibition_mean (SARS-CoV-2 nsp3-mac1 [1]; concentration 50.0 uM): -1.896%
inhibition at 50 µM (SARS-CoV-2 nsp3-mac1 [2]; read-out: perc_inhibition_mean, batch_name=ASAP-0000138-001): -1.9%

CC(C)n1cc(S(=O)(=O)Nc2cnc3[nH]ncc3c2)cn1 [ASAP-0000139]
perc_inhibition_mean (SARS-CoV-2 nsp3-mac1 [1]; concentration 50.0 uM): 1.555%
inhibition at 50 µM (SARS-CoV-2 nsp3-mac1 [2]; read-out: perc_inhibition_mean, batch_name=ASAP-0000139-001): 1.55%

Cc1ncc(NCc2cnc3c(c2)NC(=O)CO3)cc1Cl [ASAP-0000195]
perc_inhibition_mean (SARS-CoV-2 nsp3-mac1 [1]; concentration 50.0 uM): -0.368%
inhibition at 50 µM (SARS-CoV-2 nsp3-mac1 [2]; read-out: perc_inhibition_mean, batch_name=ASAP-0000195-001): -0.368%

Cc1nc(NC(=O)Cn2cnc3ccccc3c2=O)c2cc[nH]c2n1 [ASAP-0000429]
perc_inhibition_mean (SARS-CoV-2 nsp3-mac1 [1]; concentration 49.75 uM): -4.067%
perc_inhibition_mean (SARS-CoV-2 nsp3-mac1 [1]; concentration 99.5 uM): -4.886%
inhibition at 49.75 µM (SARS-CoV-2 nsp3-mac1 [2]; [10]): -4.07%
inhibition at 99.5 µM (SARS-CoV-2 nsp3-mac1 [2]; [10]): -4.89%
